“And” between values parts separate entries of the source, which are not always exact repeats. Identical values can stand only once.
What was measured:
[1] = test system: activated AMPK; test: Western immunoblot for activated (phospho-Thr172) AMPK in muscle cells; assay type: cell-based, mouse; conditions: for FOLD AMPK ACTIVATION (OVER CONTROL): cells treated 30 minutes at 37° C; for effect on AMPK activity (in words): no concentration stated
Description: (§1) The levels of Glut-4, activated AMPK and activated Akt were measured in mouse muscle cells C2C12 (from ATTC) and in primary culture of human skeletal muscle cells (Clonetics, Inc.) using Western immunoblotting. C2C12 cells were plated at 1.5×1-exp5 cells per mL/well (12-well plate) in standard cell culture medium (DMEM supplemented with 10% fetal bovine serum (FBS), 25 mM glucose, 20 mM Hepes, 4 mM glutamine and 2 mM sodium pyruvate. 48 hrs after the plating, medium was changed to differentiation medium (DMEM supplemented with 5 mM of glucose and 0.5% of FBS) for next 3-4 days to stimulate the formation of myotubes. Three hours before the treatment with selected agents, cells were washed with PBS and transferred to PBS supplemented with 5 mM of glucose.
(§2) Human skeletal muscle cells (HSKM) were cultured in SKBM-2 mediums provided by Clonetics. 48 hrs after cell plating, medium was changed to SKBM medium to stimulate differentiation of the cells to myotubes. When differentiated, the myotubes were transferred to PBS supplemented with 5 mM glucose for three hrs before the treatment.
(§3) Analysis of C2C12 cells for the level of activated AMPK, Akt and the level of GLUT-4 was performed in the same experimental system. The cells were treated for 30 minutes at 37° C. […] Subsequently, 20 μg per sample of sample protein was used for Western analysis using NuPage 10% Bis/Tris gels (Invitrogen). After exposure of membranes to primary and secondary antibodies AMPK, AKT or Glut-4 was detected using ECL-Plus (Amersham) following producer's instruction. Chemilumiscent signals were detected by using ChemiDoc system from Biorad. Intensity of detected signals were analyzed and measured using Quantity One software (Biorad). Alternatively, the level of phosphorylated AMPK was detected using ECL kit from Amersham and short exposure to Kodak films.
(§4) Experimental setup: Cell Culture was followed by treatment with selected contemplated compounds, which was followed by cell lysis and western blot analysis for AMPK, Akt, GLUT4, total AMPK, and total Akt. Signals were acquired accordingly.

[2] = test system: activated Akt; test: Western immunoblot for activated (phospho-Ser473) Akt in muscle cells; assay type: cell-based, mouse; conditions: for FOLD AKT ACTIVATION (OVER CONTROL): cells treated 30 minutes at 37° C; for effect on Akt activity (in words): no concentration stated
Description: as §1, §2, §3, §4

[3] = test system: GLUT-4; test: Western immunoblot for GLUT-4 protein level in C2C12 cells; assay type: cell-based, mouse
Description: as §1
Analysis of C2C12 cells for the level of activated AMPK, Akt and the level of GLUT-4 was performed in the same experimental system. The cells were treated for 30 minutes at 37° C. After the treatment, the cells were washed with ice-cold PBS and lysed with 80 μl of lysis buffer/well (M-PER buffer from Pierce supplemented with protease and phosphatase inhibitor mix (Calbiochem) for 10 minutes on ice. Next, the plates were transferred to −20° C. to improve the lysis of the cells. Next cells were sonicated for 5 minutes and lysate was transferred to Eppendorf tubes and centrifuged at 14,000 rpm for 10 minutes. Supernatants were collected in fresh Eppendorf tubes and kept on ice to measure the amount of total proteins. 3 μl of each lysate was used to measure the protein concentration using standard Bradford method (Biorad). Subsequently, 20 μg per sample of sample protein was used for Western analysis using NuPage 10% Bis/Tris gels (Invitrogen). After exposure of membranes to primary and secondary antibodies AMPK, AKT or Glut-4 was detected using ECL-Plus (Amersham) following producer's instruction. Chemilumiscent signals were detected by using ChemiDoc system from Biorad. Intensity of detected signals were analyzed and measured using Quantity One software (Biorad). Alternatively, the level of phosphorylated AMPK was detected using ECL kit from Amersham and short exposure to Kodak films.
Experimental setup: Cell Culture was followed by treatment with selected contemplated compounds, which was followed by cell lysis and western blot analysis for AMPK, Akt, GLUT4, total AMPK, and total Akt. Signals were acquired accordingly. Primary antibodies used in these studies are the following: Anti-phospho-AMPK (Thr172), mouse, rabbit IgG, from Cell Signaling, #2531; Anti-phospho-Akt (Ser473), mouse, rabbit IgG, Cell Signaling, #9271; Anti-Glut-4, mouse, rabbit IgG, Calbiochem, #400064; Anti-AMPK (total), mouse, rabbit IgG, Cell Signaling, #2532; Anti-Akt (total), mouse, rabbit IgG, Cell Signaling, #9272.
The effects of kinetin, N^2-Acetyl-Guanosine and N^2-Acetyl-Guanine on GLUT-4 protein level in C2C12 cells were investigated following the same experimental design as described for AMPK and AKT. Anti-Glut-4 antibody used in this study was from Calbiochem. […] Table 3 refers to multiple independent experiments where multiple identical concentrations for the same reagents are indicated.

[4] = test system: muscle cells; test: Total glucose uptake in vitro with fluorescent glucose analog; assay type: cell-based; conditions: for AVERAGE (N = 3) fluorescence of fluorescent glucose in the cells / FOLD CHANGE IN TOTAL GLUCOSE UPTAKE (OVER CONTROL): 30 minutes at 37 C
Description: Total glucose uptake was measured using fluorescent glucose analog from Molecular Probes. Briefly, muscle cells were treated with kinetin, N^2-Acetyl-Guanosine and N^2-Acetyl-Guanine for 30 minutes at 37 C first and subsequently, these cells were exposed to 500 μM of fluorescent glucose analog for 5 minutes at room temperature. Next, cells were washed twice with cold Krebs-Hepes buffered solution and fixed in 70% ethanol in water. Fluorescence of fluorescent glucose in the cells was measured using fluorescent plate reader at 480/530 nm (excitation/emission). […] Table 4 refers to multiple independent experiments where multiple identical concentrations for the same reagents are indicated.

[5] = concentration 0.15 (unit not given)
[6] = concentration 0.3 (unit not given)
[7] = concentration 0.75 (unit not given)
[8] = concentration 1.5 (unit not given)
[9] = concentration 3.75 (unit not given)
[10] = concentration 7.5 (unit not given)

CC(=O)Nc1nc2c(ncn2[C@@H]2O[C@H](CO)[C@@H](O)[C@H]2O)c(=O)[nH]1 [N^2-Acetyl-Guanosine]
FOLD AMPK ACTIVATION (OVER CONTROL) ([1]; 0.3 microM): 3.75 fold | FOLD AMPK ACTIVATION (OVER CONTROL) ([1]; 0.8 microM): 2.20 fold | FOLD AMPK ACTIVATION (OVER CONTROL) ([1]; 1.5 microM): 4.28 fold | FOLD AMPK ACTIVATION (OVER CONTROL) ([1]; 2.0 microM): 2.20 fold | FOLD AMPK ACTIVATION (OVER CONTROL) ([1]; 7.5 microM): 1.71 fold | FOLD AMPK ACTIVATION (OVER CONTROL) ([1]; 37.5 microM): 2.28 fold | effect on AMPK activity (in words) [1]: potent activators of AMPK | FOLD AKT ACTIVATION (OVER CONTROL) ([2]; 0.1 microM): 2.57 fold | FOLD AKT ACTIVATION (OVER CONTROL) ([2]; 0.3 microM): 1.92 fold and 2.57 fold | FOLD AKT ACTIVATION (OVER CONTROL) ([2]; 0.8 microM): 1.75 fold and 2.95 fold | FOLD AKT ACTIVATION (OVER CONTROL) ([2]; 1.5 microM): 1.55 fold | FOLD AKT ACTIVATION (OVER CONTROL) ([2]; 2.0 microM): 2.17 fold | FOLD AKT ACTIVATION (OVER CONTROL) ([2]; 5.0 microM): 1.23 fold | FOLD AKT ACTIVATION (OVER CONTROL) ([2]; 7.5 microM): 1.68 fold | effect on Akt activity (in words) [2]: potent activators of AMPK as well as Akt | effect on GLUT-4 protein level (in words) [3]: potently increase GLUT-4 protein level | FOLD CHANGE IN GLUT-4 LEVEL (OVER CONTROL) ([3]; 0.3 microM): 1.21 fold | FOLD CHANGE IN GLUT-4 LEVEL (OVER CONTROL) ([3]; 1.5 microM): 1.74 fold | FOLD CHANGE IN GLUT-4 LEVEL (OVER CONTROL) ([3]; 7.5 microM): 3.14 fold | FOLD CHANGE IN GLUT-4 LEVEL (OVER CONTROL) ([3]; 37.5 microM): 3.03 fold | effect on glucose uptake in muscle cells in vitro (in words) [4]: potently enhance glucose uptake in muscle cells in vitro | AVERAGE (N = 3) fluorescence of fluorescent glucose in the cells [4, 5]: 90.5 +/− 1.7 | FOLD CHANGE IN TOTAL GLUCOSE UPTAKE (OVER CONTROL) [4, 5]: 1.94 fold | AVERAGE (N = 3) fluorescence of fluorescent glucose in the cells [4, 6]: 44.1 +/− 0.7 | FOLD CHANGE IN TOTAL GLUCOSE UPTAKE (OVER CONTROL) [4, 6]: 2.17 fold | AVERAGE (N = 3) fluorescence of fluorescent glucose in the cells [4, 7]: 109.5 +/− 2.6 | FOLD CHANGE IN TOTAL GLUCOSE UPTAKE (OVER CONTROL) [4, 7]: 2.35 fold | AVERAGE (N = 3) fluorescence of fluorescent glucose in the cells [4, 8]: 54.3 +/− 0.9 | FOLD CHANGE IN TOTAL GLUCOSE UPTAKE (OVER CONTROL) [4, 8]: 2.67 fold | AVERAGE (N = 3) fluorescence of fluorescent glucose in the cells [4, 9]: 148.7 +/− 8.5 | FOLD CHANGE IN TOTAL GLUCOSE UPTAKE (OVER CONTROL) [4, 9]: 3.18 fold | AVERAGE (N = 3) fluorescence of fluorescent glucose in the cells [4, 10]: 61.7 +/− 1.3 | FOLD CHANGE IN TOTAL GLUCOSE UPTAKE (OVER CONTROL) [4, 10]: 3.03 fold

CC(=O)Nc1ccn([C@@H]2O[C@H](CO)[C@@H](O)[C@H]2O)c(=O)n1 [N^4-Acetyl-Cytidine]
FOLD AKT ACTIVATION (OVER CONTROL) ([2]; 0.8 microM): 2.45 fold | FOLD AKT ACTIVATION (OVER CONTROL) ([2]; 2.0 microM): 1.46 fold and 1.50 fold | FOLD AKT ACTIVATION (OVER CONTROL) ([2]; 5.0 microM): 1.64 fold and 1.36 fold

CC(=O)Nc1ncnc2c1ncn2[C@@H]1O[C@H](CO)[C@@H](O)[C@H]1O [N^6-Acetyl-Adenosine]
FOLD AMPK ACTIVATION (OVER CONTROL) ([1]; 2.5 microM): 1.08 fold | FOLD AMPK ACTIVATION (OVER CONTROL) ([1]; 5.0 microM): 2.41 fold | FOLD AMPK ACTIVATION (OVER CONTROL) ([1]; 12.5 microM): 2.18 fold

CN(CCOc1ccc(CC2SC(=O)NC2=O)cc1)c1ccccn1 (stereo not shown) [Rosiglitazone, reference compound]
FOLD AMPK ACTIVATION (OVER CONTROL) ([1]; 3.0 microM): 3.50 fold | FOLD AKT ACTIVATION (OVER CONTROL) ([2]; 1.0 microM): 2.83 fold | FOLD AKT ACTIVATION (OVER CONTROL) ([2]; 9.0 microM): 1.78 fold | FOLD AKT ACTIVATION (OVER CONTROL) ([2]; 27.0 microM): 0.71 fold | FOLD CHANGE IN GLUT-4 LEVEL (OVER CONTROL) ([3]; 9.0 microM): 3.61 fold | FOLD CHANGE IN GLUT-4 LEVEL (OVER CONTROL) ([3]; 27.0 microM): 3.19 fold

C/C(=C\CNc1ncnc2nc[nH]c12)CO [Trans-Zeatin]
FOLD AMPK ACTIVATION (OVER CONTROL) ([1]; 1.0 microM): 2.33 fold | FOLD AMPK ACTIVATION (OVER CONTROL) ([1]; 10.0 microM): 4.27 fold | FOLD AKT ACTIVATION (OVER CONTROL) ([2]; 1.0 microM): 0.90 fold | FOLD AKT ACTIVATION (OVER CONTROL) ([2]; 10.0 microM): 0.86 fold

C/C(=C\CNc1ncnc2[nH]cnc12)CO [Zeatin]
FOLD AMPK ACTIVATION (OVER CONTROL) ([1]; 1.0 microM): 2.33 fold and 2.15 fold | FOLD AMPK ACTIVATION (OVER CONTROL) ([1]; 10.0 microM): 2.04 fold | effect on AMPK activity (in words) [1]: potent stimulator of AMPK | FOLD AKT ACTIVATION (OVER CONTROL) ([2]; 1.0 microM): 0.95 fold | FOLD AKT ACTIVATION (OVER CONTROL) ([2]; 10.0 microM): 1.36 fold | effect on Akt activity (in words) [2]: not Akt

Insulin
FOLD AKT ACTIVATION (OVER CONTROL) ([2]; 0.10 nanoM): 1.75 fold | FOLD AKT ACTIVATION (OVER CONTROL) ([2]; 25.0 nanoM): 3.40 fold | FOLD AKT ACTIVATION (OVER CONTROL) ([2]; 50.0 nanoM): 3.28 fold
